Test results from ChEMBL document CHEMBL3351303, “Discovery of Imigliptin, a Novel Selective DPP-4 Inhibitor for the Treatment of Type 2 Diabetes” (ACS Med Chem Lett, 2014).
In brackets after ≈: the same amount, converted by molar mass.

What was measured:
[1] = test system: Mus musculus; assay: Antidiabetic activity in C57BL/6 mouse assessed as plasma glucose level at 0.3 mg/kg, po administered as single dose 30 mins before orally glucose challenge by oral glucose tolerance test (reference value: 15.6 mM); type: functional
[2] = test system: Mus musculus; assay: Antidiabetic activity in C57BL/6 mouse assessed as reduction in plasma glucose AUC (0 to 120 mins) at 0.3 mg/kg, po administered as single dose 30 mins before orally glucose challenge by oral glucose tolerance test; type: functional; details: C57BL/6, Plasma
[3] = Cmax in rat at 10 mg/kg, po; type: ADME, organism-based; set-up: dose 10 mg/kg, route oral; details: in vivo
[4] = Half life in rat at 10 mg/kg, po; type: ADME, organism-based; set-up: dose 10 mg/kg, route oral; details: in vivo
[5] = test system: Mus musculus; assay: Antidiabetic activity in C57BL/6 mouse assessed as plasma glucose level at 1 mg/kg, po administered as single dose 30 mins before orally glucose challenge by oral glucose tolerance test (reference value: 15.6 mM); type: functional
[6] = test system: Mus musculus; assay: Inhibition of DPP4 activity in C57BL/6 mouse at 3 mg/kg, po administered as single dose 30 mins before orally glucose challenge and measured 20 mins post oral glucose challenge by luminescence assay; details: C57BL/6, po, read-out: INH
[7] = Protein binding in rat; type: ADME, organism-based; details: in vivo, read-out: PB (converted)
[8] = AUClast in monkey at 10 mg/kg, po; type: ADME, organism-based, Macaca mulatta; set-up: dose 10 mg/kg, route oral, time 0 - last; details: rhesus monkey, plasma
[9] = Half life in rat at 10 mg/kg, iv; type: ADME, organism-based; set-up: dose 10 mg/kg, route intravenous; details: in vivo
[10] = Volume of distribution at steady state in monkey at 5 mg/kg, iv; type: ADME, organism-based, Macaca mulatta; set-up: dose 5 mg/kg, route intravenous; details: rhesus monkey, in vivo, read-out: Vdss
[11] = test system: Canis familiaris; assay: Cardiotoxicity in conscious dog assessed as induction of QT prolongation up to 20 mg/kg; type: toxicity, organism-based, Canis lupus familiaris; set-up: dose 20 mg/kg; details: in vivo
[12] = test system: Mus musculus; assay: Inhibition of DPP4 activity in C57BL/6 mouse at 0.3 mg/kg, po administered as single dose 30 mins before orally glucose challenge and measured 20 mins post oral glucose challenge by luminescence assay; type: functional
[13] = test system: Salmonella typhimurium; assay: Genotoxicity in Salmonella typhimurium at 5000 ug/plate by Ames test; type: toxicity, organism-based; details: salmonella enterica subsp. enterica serovar typhimurium
[14] = Half life in monkey at 5 mg/kg, iv; type: ADME, organism-based, Macaca mulatta; set-up: dose 5 mg/kg, route intravenous; details: rhesus monkey, in vivo
[15] = Volume of distribution at steady state in dog at 6.25 mg/kg, iv; type: ADME, organism-based, Canis lupus familiaris; set-up: dose 6.25 mg/kg, route intravenous; details: in vivo, read-out: Vdss
[16] = Solubility in pH 4.5 solution; type: physicochemical
[17] = Plasma concentration in C57BL/6 mouse at 1 mg/kg, po administered as single dose 30 mins before orally glucose challenge and measured 20 mins post oral glucose challenge; type: ADME, organism-based; set-up: dose 1 mg/kg, route oral
[18] = target: Cytochrome P450 2C9 (Homo sapiens, UniProt P11712); assay: Inhibition of CYP2C9 (unknown origin); type: ADME
Cytochrome P450 2C9, sequence (P11712 whole entry): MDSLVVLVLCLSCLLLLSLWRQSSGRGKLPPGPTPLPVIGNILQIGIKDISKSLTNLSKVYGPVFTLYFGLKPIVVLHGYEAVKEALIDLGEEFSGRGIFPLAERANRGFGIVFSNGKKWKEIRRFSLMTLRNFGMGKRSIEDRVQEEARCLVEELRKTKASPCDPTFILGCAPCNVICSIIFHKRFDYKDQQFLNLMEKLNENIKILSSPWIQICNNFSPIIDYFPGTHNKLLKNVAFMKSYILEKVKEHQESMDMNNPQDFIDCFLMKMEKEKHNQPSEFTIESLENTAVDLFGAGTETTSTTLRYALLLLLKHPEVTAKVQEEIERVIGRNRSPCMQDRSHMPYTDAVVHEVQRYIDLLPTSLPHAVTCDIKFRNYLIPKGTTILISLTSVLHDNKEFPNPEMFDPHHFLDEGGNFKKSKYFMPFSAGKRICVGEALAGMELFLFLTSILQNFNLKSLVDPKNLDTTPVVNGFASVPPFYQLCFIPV

[19] = test system: Mus musculus; assay: Inhibition of DPP4 activity in C57BL/6 mouse at 1 mg/kg, po administered as single dose 30 mins before orally glucose challenge and measured 20 mins post oral glucose challenge by luminescence assay; type: functional
[20] = Toxicity in rat after 28 days; type: organism-based; details: in vivo
[21] = Half life in monkey at 10 mg/kg, po; type: ADME, organism-based, Macaca mulatta; set-up: dose 10 mg/kg, route oral; details: rhesus monkey, in vivo
[22] = Plasma concentration in C57BL/6 mouse at 0.3 mg/kg, po administered as single dose 30 mins before orally glucose challenge and measured 20 mins post oral glucose challenge; type: ADME, organism-based; set-up: dose 0.3 mg/kg, route oral
[23] = Oral bioavailability in rat at 10 mg/kg; type: ADME, organism-based; details: in vivo
[24] = Clearance in dog at 6.25 mg/kg, iv; type: ADME, organism-based, Canis lupus familiaris; set-up: dose 6.25 mg/kg, route intravenous; details: in vivo
[25] = AUClast in dog at 5 mg/kg, po; type: ADME, organism-based, Canis lupus familiaris; set-up: time 0 - last, dose 5 mg/kg, route oral; details: plasma
[26] = organism: Mus musculus; assay: animal or person; details: C57BL/6, Plasma, po, read-out: MED
[27] = Cmax in monkey at 10 mg/kg, po; type: ADME, organism-based, Macaca mulatta; set-up: dose 10 mg/kg, route oral; details: rhesus monkey, in vivo
[28] = Protein binding in human; type: ADME, organism-based; details: in vivo, read-out: PB (converted)
[29] = AUClast in rat at 10 mg/kg, po; type: ADME, organism-based; set-up: time 0 - last, dose 10 mg/kg, route oral; details: plasma
[30] = Half life in dog at 6.25 mg/kg, iv; type: ADME, organism-based, Canis lupus familiaris; set-up: dose 6.25 mg/kg, route intravenous; details: in vivo
[31] = Solubility in pH 1.2 solution; type: physicochemical
[32] = Cmax in dog at 5 mg/kg, po; type: ADME, organism-based, Canis lupus familiaris; set-up: dose 5 mg/kg, route oral; details: in vivo
[33] = Half life in dog at 5 mg/kg, po; type: ADME, organism-based, Canis lupus familiaris; set-up: dose 5 mg/kg, route oral; details: in vivo
[34] = Plasma concentration in C57BL/6 mouse at 0.1 mg/kg, po administered as single dose 30 mins before orally glucose challenge and measured 20 mins post oral glucose challenge; type: ADME, organism-based; set-up: dose 0.1 mg/kg, route oral
[35] = Protein binding in dog; type: ADME, organism-based, Canis lupus familiaris; details: in vivo, read-out: PB (converted)
[36] = target: Cytochrome P450 2C19 (Homo sapiens, UniProt P33261); assay: Inhibition of CYP2C19 (unknown origin); type: ADME
Cytochrome P450 2C19, sequence (P33261 whole entry): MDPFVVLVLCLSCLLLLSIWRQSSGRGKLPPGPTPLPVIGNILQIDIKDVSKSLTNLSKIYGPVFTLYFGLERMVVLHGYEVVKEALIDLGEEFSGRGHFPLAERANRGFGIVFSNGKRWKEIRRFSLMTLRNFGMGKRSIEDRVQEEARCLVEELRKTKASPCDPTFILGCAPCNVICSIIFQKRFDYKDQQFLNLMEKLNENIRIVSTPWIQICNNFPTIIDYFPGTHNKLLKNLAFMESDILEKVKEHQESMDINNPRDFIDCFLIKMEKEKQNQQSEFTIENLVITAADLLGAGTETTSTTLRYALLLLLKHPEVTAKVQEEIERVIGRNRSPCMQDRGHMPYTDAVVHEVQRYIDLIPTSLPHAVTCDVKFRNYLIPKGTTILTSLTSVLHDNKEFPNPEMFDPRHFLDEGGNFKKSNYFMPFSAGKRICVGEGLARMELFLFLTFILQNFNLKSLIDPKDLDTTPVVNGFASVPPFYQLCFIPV

[37] = Permeability from apical to basolateral side in human Caco2 cells; type: ADME, cell-based; details: Caco-2, read-out: permeability
[38] = Clearance in monkey at 5 mg/kg, iv; type: ADME, organism-based, Macaca mulatta; set-up: dose 5 mg/kg, route intravenous; details: rhesus monkey, in vivo
[39] = organism: Mus musculus; assay: animal or person; details: C57BL/6, Plasma, po, read-out: INH
[40] = test system: Mus musculus; assay: Antidiabetic activity in C57BL/6 mouse assessed as reduction in plasma glucose AUC (0 to 120 mins) at 1 mg/kg, po administered as single dose 30 mins before orally glucose challenge by oral glucose tolerance test; type: functional; details: C57BL/6, Plasma
[41] = test system: Mus musculus; assay: Increase in plasma GLP1 level in C57BL/6 mouse at 0.1 mg/kg, po administered as single dose 30 mins before orally glucose challenge and measured 20 mins post oral glucose challenge by ELISA method (reference value: 4 pM); type: functional
[42] = Plasma concentration in C57BL/6 mouse at 3 mg/kg, po administered as single dose 30 mins before orally glucose challenge and measured 20 mins post oral glucose challenge; type: ADME, organism-based; set-up: dose 3 mg/kg, route oral
[43] = test system: Mus musculus; assay: Antidiabetic activity in C57BL/6 mouse assessed as reduction in plasma glucose AUC (0 to 120 mins) at 0.1 mg/kg, po administered as single dose 30 mins before orally glucose challenge by oral glucose tolerance test; type: functional; details: C57BL/6, Plasma
[44] = test system: Mus musculus; assay: Inhibition of DPP4 activity in C57BL/6 mouse at 0.1 mg/kg, po administered as single dose 30 mins before orally glucose challenge and measured 20 mins post oral glucose challenge by luminescence assay; type: functional
[45] = Oral bioavailability in dog at 5 mg/kg; type: ADME, organism-based, Canis lupus familiaris; details: in vivo
[46] = test system: Mus musculus; assay: Antidiabetic activity in C57BL/6 mouse assessed as plasma glucose level at 0.1 mg/kg, po administered as single dose 30 mins before orally glucose challenge by oral glucose tolerance test (reference value: 15.6 mM); type: functional
[47] = test system: Mus musculus; assay: Increase in plasma GLP1 level in C57BL/6 mouse at 1 mg/kg, po administered as single dose 30 mins before orally glucose challenge and measured 20 mins post oral glucose challenge by ELISA method (reference value: 4 pM); type: functional
[48] = target: Voltage-gated inwardly rectifying potassium channel KCNH2 (Homo sapiens, UniProt Q12809); assay: Inhibition of human ERG
Voltage-gated inwardly rectifying potassium channel KCNH2, sequence (Q12809 whole entry): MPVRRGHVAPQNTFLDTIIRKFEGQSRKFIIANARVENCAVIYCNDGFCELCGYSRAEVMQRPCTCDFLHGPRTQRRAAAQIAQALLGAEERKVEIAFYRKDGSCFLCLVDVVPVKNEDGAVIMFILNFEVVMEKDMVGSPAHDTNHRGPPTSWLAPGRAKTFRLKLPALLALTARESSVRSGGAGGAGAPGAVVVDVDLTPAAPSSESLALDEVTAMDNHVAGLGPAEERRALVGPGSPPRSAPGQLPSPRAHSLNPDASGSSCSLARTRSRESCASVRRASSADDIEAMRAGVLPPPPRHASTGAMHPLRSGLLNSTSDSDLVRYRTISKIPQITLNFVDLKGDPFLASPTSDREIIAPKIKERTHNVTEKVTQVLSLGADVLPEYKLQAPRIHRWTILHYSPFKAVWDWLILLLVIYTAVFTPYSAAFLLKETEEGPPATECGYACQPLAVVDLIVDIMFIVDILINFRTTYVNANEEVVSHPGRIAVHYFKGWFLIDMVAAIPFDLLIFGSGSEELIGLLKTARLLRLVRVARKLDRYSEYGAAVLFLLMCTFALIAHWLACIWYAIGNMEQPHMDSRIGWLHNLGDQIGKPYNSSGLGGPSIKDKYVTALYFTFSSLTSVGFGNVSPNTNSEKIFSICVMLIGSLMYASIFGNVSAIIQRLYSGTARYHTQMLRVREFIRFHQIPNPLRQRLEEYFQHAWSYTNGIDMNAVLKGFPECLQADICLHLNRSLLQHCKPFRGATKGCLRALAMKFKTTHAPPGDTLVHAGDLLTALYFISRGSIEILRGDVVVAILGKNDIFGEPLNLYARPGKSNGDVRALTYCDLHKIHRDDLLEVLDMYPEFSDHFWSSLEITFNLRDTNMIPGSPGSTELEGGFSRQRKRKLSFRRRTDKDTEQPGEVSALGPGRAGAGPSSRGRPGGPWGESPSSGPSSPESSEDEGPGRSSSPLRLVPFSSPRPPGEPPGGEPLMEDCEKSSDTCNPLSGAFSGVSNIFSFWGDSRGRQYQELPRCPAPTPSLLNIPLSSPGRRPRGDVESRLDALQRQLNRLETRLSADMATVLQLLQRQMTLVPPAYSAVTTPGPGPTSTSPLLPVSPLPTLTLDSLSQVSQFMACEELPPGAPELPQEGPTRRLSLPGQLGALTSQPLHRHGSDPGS

[49] = target: Cytochrome P450 2D6 (Homo sapiens, UniProt P10635); assay: Inhibition of CYP2D6 (unknown origin); type: ADME
Cytochrome P450 2D6, sequence (P10635 whole entry): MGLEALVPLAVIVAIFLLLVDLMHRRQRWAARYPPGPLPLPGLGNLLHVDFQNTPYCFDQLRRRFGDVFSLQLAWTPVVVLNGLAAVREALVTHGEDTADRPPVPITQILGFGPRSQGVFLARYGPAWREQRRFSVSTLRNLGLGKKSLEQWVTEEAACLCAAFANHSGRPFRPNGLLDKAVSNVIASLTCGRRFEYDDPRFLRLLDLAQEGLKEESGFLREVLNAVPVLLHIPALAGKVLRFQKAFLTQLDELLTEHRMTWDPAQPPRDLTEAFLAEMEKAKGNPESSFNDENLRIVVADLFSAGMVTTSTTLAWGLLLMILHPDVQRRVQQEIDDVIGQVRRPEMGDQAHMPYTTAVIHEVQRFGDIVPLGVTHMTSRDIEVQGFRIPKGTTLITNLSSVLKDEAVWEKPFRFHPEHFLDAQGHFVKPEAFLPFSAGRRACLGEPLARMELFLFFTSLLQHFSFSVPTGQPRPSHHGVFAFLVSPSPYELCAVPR

[50] = target: Cytochrome P450 3A4 (Homo sapiens, UniProt P08684); assay: Inhibition of CYP3A4 (unknown origin); type: ADME
Cytochrome P450 3A4, sequence (P08684 whole entry): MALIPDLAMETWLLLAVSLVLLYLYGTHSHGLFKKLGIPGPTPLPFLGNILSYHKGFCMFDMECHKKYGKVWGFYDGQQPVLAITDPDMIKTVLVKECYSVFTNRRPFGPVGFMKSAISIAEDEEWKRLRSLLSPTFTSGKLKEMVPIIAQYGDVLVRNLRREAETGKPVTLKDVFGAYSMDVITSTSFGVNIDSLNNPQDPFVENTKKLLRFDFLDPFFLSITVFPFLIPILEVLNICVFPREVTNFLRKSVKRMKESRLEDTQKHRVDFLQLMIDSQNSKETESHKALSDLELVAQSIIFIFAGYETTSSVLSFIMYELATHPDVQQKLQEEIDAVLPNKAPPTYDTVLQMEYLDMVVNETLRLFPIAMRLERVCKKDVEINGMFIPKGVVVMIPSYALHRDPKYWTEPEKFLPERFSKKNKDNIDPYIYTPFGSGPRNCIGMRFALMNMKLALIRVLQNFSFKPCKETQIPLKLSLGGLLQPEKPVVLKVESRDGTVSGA

[51] = Oral bioavailability in monkey at 10 mg/kg; type: ADME, organism-based, Macaca mulatta; details: rhesus monkey, in vivo
[52] = test system: Mus musculus; assay: Increase in plasma GLP1 level in C57BL/6 mouse at 0.3 mg/kg, po administered as single dose 30 mins before orally glucose challenge and measured 20 mins post oral glucose challenge by ELISA method (reference value: 4 pM); type: functional
[53] = Solubility in pH 6.8 solution; type: physicochemical
[54] = test system: Mus musculus; assay: Toxicity in db/db mouse assessed as effect on body weight administered with food formulated compound for 28 days; type: organism-based; details: in vivo, po, 672 h
[55] = Permeability from basolateral to apical side in human Caco2 cells; type: ADME, cell-based; details: Caco-2, read-out: permeability

Molecule `Cc1cc(N2CCC[C@@H](N)C2)c2c(n1)n(C)c(=O)n2Cc1ccccc1C#N` has an Activity [1] of 12.4 mM, an inhibition in vivo at 0.3 mg/kg [2] of 40% and a Cmax [3] of 1250 ng/mL. It also gave a half-life [4] of 144 min, an Activity [5] of 11.4 mM and an inhibition in vivo at 3 mg/kg [6] of 82.1%. The fraction unbound [7] was 0.58, the AUC(0-t) [8] was 12900 ng·h/mL and the half-life [9] was 110 min. For the same molecule, the Vd [10] was 2.44 L/kg, the Activity [11] was “Non-toxic” and the inhibition in vivo at 0.3 mg/kg [12] was 43.8%. The Activity [13] was “Non-toxic”, the half-life [14] was 221 min and the Vd [15] was 2.46 L/kg. The solubility [16] was 560 mg/mL (≈ 1490 mM), the concentration at 50 min [17] was 36.1 ng/mL and the INH [18] was greater than 30 µM. For the same molecule, the inhibition in vivo at 1 mg/kg [19] was 71.2%, the NOAEL at 672 h [20] was 150 mg/kg and the half-life [21] was 288 min. It also gave a concentration at 20 min [22] of 10.3 ng/mL, a bioavailability [23] of 97% and a clearance [24] of 35.3 mL/min/kg. It also gave an AUC(0-t) [25] of 3630 ng·h/mL, a minimal effective dose [26] of 0.3 mg/kg and a Cmax [27] of 3030 ng/mL. For the same molecule, the fraction unbound [28] was 0.38, the AUC(0-t) [29] was 3980 ng·h/mL and the half-life [30] was 67.2 min. It also gave a solubility [31] of 560 mg/mL (≈ 1490 mM), a Cmax [32] of 1360 ng/mL and a half-life [33] of 78 min. The concentration at 20 min [34] was 3.9 ng/mL, the fraction unbound [35] was 0.26 and the INH [36] was greater than 30 µM. The Papp A→B [37] was 9 ×10⁻⁶ cm/s, the clearance [38] was 11.2 mL/min/kg and the inhibition in vivo at 3 mg/kg [39] was 65%. The inhibition in vivo at 1 mg/kg [40] was 57%, the Activity [41] was 5.7 pM and the concentration at 20 min [42] was 129 ng/mL. For the same molecule, the inhibition in vivo at 0.1 mg/kg [43] was 3%, the inhibition in vivo at 0.1 mg/kg [44] was 23.8% and the bioavailability [45] was 89%. The Activity [46] was 14.1 mM, the Activity [47] was 6.9 pM and the INH [48] was greater than 25 µM. The INH [49] was greater than 30 µM, the INH [50] was greater than 30 µM and the bioavailability [51] was 86%. The Activity [52] was 5.7 pM, the solubility [53] was 551 mg/mL (≈ 1460 mM) and the Activity [54] was “Non-toxic”. The Papp B→A [55] was 28 ×10⁻⁶ cm/s.
